Earlier results as cited in article PMC10036820, “In vivo evaluation of integrin αvβ6-targeting peptide in NSCLC and brain metastasis” (Frontiers in Oncology, 2023).

How the values were obtained:
[1] = test system: HNSCC primary tumor and lymph node metastases; set-up: method as in PMID 29674419; settings: PET/CT, patient with HNSCC; ref [16]
[2] = test system: integrin αvβ6; set-up: method as in PMID 29674419; settings: comparison in words; ref [16]

**Q.** Which results are given for “GRGDLGRL [SFLAP3, SFTI-based peptide containing latency-associated peptide (GRGDLGRL)]”?
**A.** SUVmax, lymph node metastases [1]: 4.1; SUVmax, primary tumor [1]: 5.1; affinity to integrin αvβ6 relative to SFITGv6 [2]: better affinity
